Consider 1 substance from patent publication US20240043527A1 (BioNTech SE, priority 2020, published 2024).

For data set [1], the system named is CHO-K1 cells. Kind of data set: Expression and assembly of RiboMab after lipofection of CHO-K1 cells (ELISA). The format is cell-based, Chinese hamster. Conditions: 48 hours post lipofection. (In general: In an ELISA, binding on a coated surface is turned into a signal by an enzyme label.)
For data set [2], the system named is MDA-MB-231 cells. Kind of data set: Ex vivo ADCC assay with serum of dosed non-human primates, target-negative control cells. The data set is classed as cell-based. Here is the method: Non-Human Primates (NHP) received three repetitive doses of 0.1, 0.4 or 1.6 mg/kg RB_RMAB01 once weekly. RiboMab01-containing serum of all monkeys sampled 24 hours (black bars) and 168 hours (white bars) post 1st injection was directed to luciferase-based ex vivo ADCC assays. […] Human PBMCs from two different healthy donors (24 h, donor 1, 168 h, donor 2) served as effector cells. (Panel A) RiboMab01-mediated ADCC of NUG-C4 cells after 48 hours incubation is shown. (Panel B) Unspecific lysis on target-negative MDA-MB-231 cells is shown. Error bars are standard error of the mean (n=3). (Panel C) Serum of NHP No. 14 (1.6 mg/kg RB_RMAB01, RiboMab01 serum concentration 232 μg/mL) collected 48 hours after the 3rd dosing was used for a luciferase-based ex vivo ADCC assays. […] Human PBMCs of a healthy donor served as effector cells. […] Incubation time was 48 hours. Error bars are standard errors of the mean (n=3).
ADCC assays were performed as described in Example 2. […] Purified IMAB362 served as assay reference protein.

Data set [3] concerns CLDN-18.2+ NCI-N87 xenograft tumors. Kind of data set: CLDN-18.2+ human gastric carcinoma xenograft tumor model. The data set is classed as in vivo, mice. Particulars: IV injections of 1-30 μg RB_RMAB01 on test days 15, 22, 29, 36, 43 and 50. The method, then: Median tumor growth of treatment and control groups is shown. Dotted lines indicate injections. Significance was calculated by Two-way ANOVA. Ns indicates not significant.
Background: In xenograft studies the graft and the host belong to different species.

Data set [4] relates to primary human hepatocytes. Kind of data set: Expression and assembly of RiboMab after lipofection of primary human hepatocytes (ELISA, Western Blot). Particulars: 48 hours post lipofection. The format is cell-based. Here is the method:
(Left) ELISA analyses of RiboMab01 concentrations 48 hours post transfection. (Right) Western Blot analysis of cell culture supernatant from indicated lipofections. Recombinant purified IMAB362 served as reference for Western Blot analysis. Analysis was performed under non-reducing conditions and with HRP-conjugated anti-human antibodies. A mixture of Fcγ-fragment specific and anti-kappa light chain specific antibodies was used for detection of full length IgG, free heavy (HC) and free light chains (LC). Supernatant of untransfected primary human hepatocytes served as mock control. […] RiboMab01 concentration determined via ELISA 48 hours post transfection are shown. Error bars are standard errors of the mean (n=3).
Assembly of full IgG after RNA transfection of hepatocytes.

The nature of data set [5]: Repetitive dose PK study in NHP (ELISA). The format is in vivo, Cynomolgus monkey. Here is the method: NHP received IV injections of 0.1, 0.4 or 1.6 mg/kg RB_RMAB01 at test days 1, 8 and […] was sampled 6, 24, 48, 72, 96 and 168 hours post 1st and 3rd dosing and 48, 72 and 168 hours post 2nd dosing as well as 264, 336 and 504 hours post 3rd dosing. RiboMab01 concentrations in plasma measured via ELISA are shown. Error bars are standard errors of the mean (n=3).
FIG. 14 is a graph showing dose-exposure correlation of RB_RMAB01 in cynomolgus monkey at tmax. Cynomolgus monkeys (n=3) received IV injections of 0.1, 0.4 or 1.6 mg/kg RB_RMAB01. Dose-dependent RiboMab01 concentrations (mean, n=3) in plasma measured via ELISA at Cmax are depicted. A green line indicates a dose that can be administered to a human subject and its corresponding anticipated serum concentration.
Treatment groups received three IV bolus injections of either 0.1 mg/kg, 0.4 mg/kg or 1.6 mg/kg at weekly intervals. As controls, saline or empty LNPs were administered likewise. Serum was sampled 6, 24, 48, 72, 96 and 168 hours post 1st and 3rd dosing and 48, 72 and 168 hours post 2nd dosing as well as 264, 336 and 504 hours post 3rd dosing.

In data set [6] the test system is CLDN-18.2+ NUG-C4 transfectants. Kind of data set: In vitro ADCC assay (luciferase-based). The data set is classed as cell-based, human. Particulars: for ADCC, cellular cytotoxicity: control cells MDA-MB-231, human PBMCs, E:T 30:1. The method, then: RiboMab01-containing cell culture supernatant from CHO-K1 cells lipofected with RB_RMAB01 was subjected to (Panel A) ADCC and (Panel B) CDC assays. […] Human PBMCs of three different healthy donors were utilized as effector cells (E:T ratio 30:1). Target or control and effector cells were incubated for 48 hours with the indicated RiboMab01 and IMAB362 reference protein concentrations. Specific cell lysis as determined in a luciferase-based assay is shown. […] Target and control cells were incubated with human serum and RiboMab01 concentrations as indicated for 2 hours. CDC determined in a luciferase-based assay is shown. Error bars are standard errors of the mean (n=3).
Mode of action analysis: Antibody-dependent cellular cytotoxicity (ADCC) and complement-dependent cytotoxicity (CDC) in vitro. […] To simulate in vivo conditions, human PBMCs from three different healthy donors were used as effector cells in ADCC assays in an effector to target (E:T) ratio of 30:1 and human serum (e.g., commercially available human serum) was used as a source of complement in CDC assays.

“CLDN-18.2-targeting RiboMab: CLDN-18.2-targeting IgG antibody (IMAB362 delivered as ribonucleic acid) expressed from mRNAs encoding heavy and light chain”: the “expression and assembly of full IgG in cell supernatant” value is recorded as “Fully assembled” in data set [1], “expressed” in data set [1] (listed as RiboMab01), “Fully assembled” in data set [4] and “expressed” in data set [4] (listed as RiboMab01). Besides, in data set [2] (FIG. 5 Panel C dilution row), the “unspecific lysis on control cells” value is “weak unspecific lysis”. For the same substance, the “unspecific lysis on target-negative cells” value in data set [2] (NHP serum 24 h and 168 h post dosing) is given as “Low effector, donor-dependent unspecific lysis”. The “tumor growth inhibition in vivo (FIG. 6)” value in data set [3] was “tumor growth inhibition”. For the same substance, in data set [5] (NHP No. 14, 1.6 mg/kg, 48 hours after the 3rd dosing), the “RiboMab serum concentration, highest determined” value amounted to 232 µg/mL. The “Cmax compared with IMAB362” value in data set [5] (between 48-72 hours post administration) was “notably lower Cmax than IMAB362”. The same substance came in with a tmax in data set [5] (dose-exposure correlation in cynomolgus monkey, FIG. 14) of 48 h. In addition, the “peak serum concentration of RiboMab” value in data set [5] (highest dose 1.6 mg/kg, 48-72 hours post 3rd administration) amounted to 231.7 µg/mL. The “time RiboMab detectable (termination of the study)” value in data set [5] (post 1st dosing) amounted to 840 h. For the same substance, the “expression on weekly administration” value in data set [5] (three weekly IV doses) is on record as “sustainable”. For the same substance, the “ADCC, cellular cytotoxicity” value in data set [6] was “target specific and dose-dependent cellular cytotoxicity comparable to the reference protein IMAB362”; in data set [6] (listed as RiboMab01), “high target specific cell cytotoxicity”. The “ADCC EC50” value in data set [6] (human PBMCs from three donors, E:T 30:1, 48 hours) was in the range of 0.01 to 0.127 µg/mL.
